Assay results taken from US12673945B2, “3-((8-((1H-pyrazol-4-yl)amino)imidazo[1,2-a]pyridin-3-yl)ethinyl)-n-phenylbenzamide derivative, method for preparing same, and pharmaceutical composition containing same as active ingredient for prevention or treatment of cancer” (DAEGU-GYEONGBUK MEDICAL INNOVATION FOUNDATION, priority 2020, dated 2026).

Assays:
Format in all cases: cell-based
[1] = test system: Parental (Ba/F3); assay: Ba/F3 cell proliferation inhibition; conditions: BaF3; 72 hours, Cell Counting Kit-8
Experimental: (§1) […] lymphocyte cells, Parental (Ba/F3) and T315I-Bcr-Abl (Ba/F3) were seeded in 96-well plates at the density of 1×10^4/90 μL/well. A culture solution containing 9 concentrations (0.015 to 100 μM) of each example compound serially diluted in 3 folds or DMSO (control) were added to the plate ([…]) to a final concentration of 0 to 10 μM. The plate was incubated in a 37° C. CO2 incubator for 72 hours.
(§2) After incubation for 72 hours, the plate treated with the compound was treated with Cell Counting Kit-8 (Dojindo Molecular Technologies, Inc) solution at the concentration of 10 μL/well, and then mixed well. Then, the plate was incubated in a CO2 incubator at 37° C. for 2 hours, and absorbance at 450 nm was measured with a microplate reader. Data were expressed as percentage compared to vehicle treated cells and GI50 values were calculated using GraphPad Prism 5.0 (GraphPad software Inc., San Diego) GraphPad Prism 5.0.

[2] = test system: T315I-Bcr-Abl (Ba/F3); assay: Ba/F3 cell proliferation inhibition; conditions: BaF3; 72 hours, Cell Counting Kit-8
Experimental: as §1, §2

[3] = test system: KOPM28 cells; assay: human CML cell proliferation inhibition; conditions: 72 hours, Cell Counting Kit-8
Experimental: (§3) In order to evaluate the therapeutic effect of the compound according to the present invention on chronic myelogenous leukemia (CML), the following experiment was performed, and the results are shown in Table 6 below. Inhibitory activity to Bcr-Abl kinase was evaluated through the experiment using TCCS and KOPM28 cells, and inhibitory activity to T315I-Bcr-Abl kinase was evaluated through the experiment using T315I-TCCS and T315I-KOPM28 cells.
(§4) Human chronic myelogenous leukemia (CML) cells used in the experiment were TCCS, T315I-TCCS, KOPM28 and T315I-KOPM28, and the four types of cells were provided by University of Yamanashi.
(§5) Four types of human CML cells were each seeded in 96-well plates at the density of 1×10^4/90 μL/well. A culture solution containing 9 concentrations (0.000256 to 100 μM) of each example compound serially diluted in 5 folds or DMSO (control) were added to the plate (10 μL/well) to a final concentration of 0 to 10 μM. The plate was incubated in a 37° C. CO2 incubator for 72 hours.
as §2, with “8.0” for “5.0”, “Diego).” for “Diego) GraphPad Prism 5.0.”

[4] = test system: T315I-KOPM28 cells; assay: human CML cell proliferation inhibition; conditions: 72 hours, Cell Counting Kit-8
Experimental: as §3, §4, §5
as §2, with “8.0” for “5.0”, “Diego).” for “Diego) GraphPad Prism 5.0.”

[5] = test system: T315I-TCCS cells; assay: human CML cell proliferation inhibition; conditions: 72 hours, Cell Counting Kit-8
Experimental: as §3, §4, §5
as §2, with “8.0” for “5.0”, “Diego).” for “Diego) GraphPad Prism 5.0.”

[6] = test system: TCCS cells; assay: human CML cell proliferation inhibition; conditions: 72 hours, Cell Counting Kit-8
Experimental: as §3, §4, §5
as §2, with “8.0” for “5.0”, “Diego).” for “Diego) GraphPad Prism 5.0.”

For `Cc1cc(F)c(C(=O)Nc2cc(-c3cccnc3)cc(C(C)(C)C#N)c2)cc1C#Cc1cnc2c(Nc3cnn(C)c3)cccn12` [Example 18, N-(3-(2-cyanopropan-2-yl)-5-(pyridin-3-yl)phenyl)-2-fluoro-4-methyl-5-((8-((1-methyl-1H-pyrazol-4-yl)amino)imidazo[1,2-a]pyridin-3-yl)ethynyl)benzamide], which GI50 [1] is on record?
Its GI50 is over 5 µM.

What about the GI50 [2] of the same molecule?
The GI50 was 0.05 to 0.5 µM.

And the GI50 [3]?
Its GI50 is under 0.01 µM.

And the GI50 [4]?
The GI50 was 0.1 µM.

What about the GI50 [5] of the same molecule?
Its GI50 is 0.1 µM.

And the GI50 [6]?
Its GI50 is under 0.01 µM.

What does the source list for `Cc1cc(F)c(C(=O)Nc2cc(-c3cnn(C)c3)cc(C(C)(C)C#N)c2)cc1C#Cc1cnc2c(Nc3cnn(C)c3)cccn12` [Example 19, N-(3-(2-cyanopropan-2-yl)-5-(1-methyl-1H-pyrazol-4-yl)phenyl)-2-fluoro-4-methyl-5-((8-((1-methyl-1H-pyrazol-4-yl)amino)imidazo[1,2-a]pyridin-3-yl)ethynyl)benzamide]?
GI50 [1]: > 5 µM; GI50 [2]: 0.05 to 0.5 µM; GI50 [3]: < 0.01 µM; GI50 [4]: > 0.1 µM; GI50 [5]: 0.1 µM; GI50 [6]: < 0.01 µM

For `Cc1cc(F)c(C(=O)Nc2cc(N3CCN(C)CC3)cc(C(C)(C)C#N)c2)cc1C#Cc1cnc2c(Nc3cnn(C)c3)cccn12` [Example 20, N-(3-(2-cyanopropan-2-yl)-5-(4-methylpiperazin-1-yl)phenyl)-2-fluoro-4-methyl-5-((8-((1-methyl-1H-pyrazol-4-yl)amino)imidazo[1,2-a]pyridin-3-yl)ethynyl)benzamide], which GI50 [1] is on record?
The GI50 was 0.5 to 5 µM.

And the GI50 [2]?
The GI50 was 0.05 to 0.5 µM.

And the GI50 [3]?
Its GI50 is under 0.01 µM.

And the GI50 [4]?
The GI50 was over 0.1 µM.

And the GI50 [5]?
Its GI50 is 0.1 µM.

And the GI50 [6]?
The GI50 was under 0.01 µM.

What does the source list for `Cc1cc(F)c(C(=O)Nc2cc(N3CCCN(C)CC3)cc(C(C)(C)C#N)c2)cc1C#Cc1cnc2c(Nc3cnn(C)c3)cccn12` [Example 21, N-(3-(2-cyanopropan-2-yl)-5-(4-methyl-1,4-diazepan-1-yl)phenyl)-2-fluoro-4-methyl-5-((8-((1-methyl-1H-pyrazol-4-yl)amino)imidazo[1,2-a]pyridin-3-yl)ethynyl)benzamide]?
GI50 [1]: 0.5 to 5 µM; GI50 [2]: 0.05 to 0.5 µM; GI50 [3]: < 0.01 µM; GI50 [4]: > 0.1 µM; GI50 [5]: 0.1 µM; GI50 [6]: < 0.01 µM

`Cc1cc(F)c(C(=O)Nc2cc(N(C)CCN(C)C)cc(C(C)(C)C#N)c2)cc1C#Cc1cnc2c(Nc3cnn(C)c3)cccn12` [Example 22, N-(3-(2-cyanopropan-2-yl)-5-((2-(dimethylamino)ethyl)(methyl)amino)phenyl)-2-fluoro-4-methyl-5-((8-((1-methyl-1H-pyrazol-4-yl)amino)imidazo[1,2-a]pyridin-3-yl)ethynyl)benzamide] was tested. Which GI50 [1] did it give?
Its GI50 is 0.5 to 5 µM.

What about the GI50 [2] of the same molecule?
The GI50 was 0.05 to 0.5 µM.

And the GI50 [3]?
Its GI50 is under 0.01 µM.

What about the GI50 [4] of the same molecule?
Its GI50 is 0.1 µM.

And the GI50 [5]?
The GI50 was 0.1 µM.

What about the GI50 [6] of the same molecule?
The GI50 was under 0.01 µM.

Which results are given for `Cc1cc(F)c(C(=O)Nc2cc(N(C)CCCN(C)C)cc(C(C)(C)C#N)c2)cc1C#Cc1cnc2c(Nc3cnn(C)c3)cccn12` [Example 23, N-(3-(2-cyanopropan-2-yl)-5-((3-(dimethylamino)propyl)(methyl)amino)phenyl)-2-fluoro-4-methyl-5-((8-((1-methyl-1H-pyrazol-4-yl)amino)imidazo[1,2-a]pyridin-3-yl)ethynyl)benzamide]?
GI50 [1]: 0.5 to 5 µM; GI50 [2]: 0.05 to 0.5 µM; GI50 [3]: < 0.01 µM; GI50 [4]: > 0.1 µM; GI50 [5]: > 0.1 µM; GI50 [6]: < 0.01 µM

Which GI50 [1] does the source give for `Cc1cc(F)c(C(=O)Nc2cc(N3CCN(C)C(=O)C3)cc(C(C)(C)C#N)c2)cc1C#Cc1cnc2c(Nc3cnn(C)c3)cccn12` [Example 24, N-(3-(2-cyanopropan-2-yl)-5-(4-methyl-3-oxopiperazin-1-yl)phenyl)-2-fluoro-4-methyl-5-((8-((1-methyl-1H-pyrazol-4-yl)amino)imidazo[1,2-a]pyridin-3-yl)ethynyl)benzamide] here?
Its GI50 is 0.5 to 5 µM.

What about the GI50 [2] of the same molecule?
Its GI50 is 0.05 to 0.5 µM.

What about the GI50 [3] of the same molecule?
The GI50 was under 0.01 µM.

And the GI50 [4]?
The GI50 was 0.1 µM.

And the GI50 [5]?
The GI50 was 0.1 µM.

What about the GI50 [6] of the same molecule?
The GI50 was under 0.01 µM.

What does the source list for `Cc1cc(F)c(C(=O)Nc2cc(N3CCC(N4CCN(C)CC4)CC3)cc(C(C)(C)C#N)c2)cc1C#Cc1cnc2c(Nc3cnn(C)c3)cccn12` [Example 25, N-(3-(2-cyanopropan-2-yl)-5-(4-(4-methylpiperazin-1-yl)piperidin-1-yl)phenyl)-2-fluoro-4-methyl-5-((8-((1-methyl-1H-pyrazol-4-yl)amino)imidazo[1,2-a]pyridin-3-yl)ethynyl)benzamide]?
GI50 [1]: 0.5 to 5 µM; GI50 [2]: 0.05 to 0.5 µM; GI50 [3]: < 0.01 µM; GI50 [4]: 0.1 µM; GI50 [5]: > 0.1 µM; GI50 [6]: < 0.01 µM

Which results are given for `Cc1cc(F)c(C(=O)Nc2cc(Oc3ccncc3)cc(C(C)(C)C#N)c2)cc1C#Cc1cnc2c(Nc3cnn(C)c3)cccn12` [Example 26, N-(3-(2-cyanopropan-2-yl)-5-(pyridin-4-yloxy)phenyl)-2-fluoro-4-methyl-5-((8-((1-methyl-1H-pyrazol-4-yl)amino)imidazo[1,2-a]pyridin-3-yl)ethynyl)benzamide]?
GI50 [1]: > 5 µM; GI50 [2]: < 0.05 µM; GI50 [3]: < 0.01 µM; GI50 [4]: 0.1 µM; GI50 [5]: < 0.01 µM; GI50 [6]: < 0.01 µM

Which GI50 [1] does the source give for `Cc1cc(F)c(C(=O)Nc2cc(CN3CCN(C)CC3)cc(C(C)(C)C#N)c2)cc1C#Cc1cnc2c(Nc3cnn(C)c3)cccn12` [Example 27, N-(3-(2-cyanopropan-2-yl)-5-((4-methylpiperazin-1-yl)methyl)phenyl)-2-fluoro-4-methyl-5-((8-((1-methyl-1H-pyrazol-4-yl)amino)imidazo[1,2-a]pyridin-3-yl)ethynyl)benzamide] here?
Its GI50 is 0.5 to 5 µM.

What about the GI50 [2] of the same molecule?
Its GI50 is under 0.05 µM.

And the GI50 [3]?
The GI50 was under 0.01 µM.

And the GI50 [4]?
Its GI50 is 0.1 µM.

And the GI50 [5]?
The GI50 was 0.1 µM.

And the GI50 [6]?
The GI50 was under 0.01 µM.

For `Cc1cc(F)c(C(=O)Nc2cc(CN3CCOCC3)cc(C(C)(C)C#N)c2)cc1C#Cc1cnc2c(Nc3cnn(C)c3)cccn12` [Example 28, N-(3-(2-cyanopropan-2-yl)-5-(morpholinomethyl)phenyl)-2-fluoro-4-methyl-5-((8-((1-methyl-1H-pyrazol-4-yl)amino)imidazo[1,2-a]pyridin-3-yl)ethynyl)benzamide], which GI50 [1] is on record?
The GI50 was over 5 µM.

What about the GI50 [2] of the same molecule?
Its GI50 is 0.05 to 0.5 µM.

What about the GI50 [3] of the same molecule?
Its GI50 is under 0.01 µM.

What about the GI50 [4] of the same molecule?
The GI50 was over 0.1 µM.

And the GI50 [5]?
Its GI50 is over 0.1 µM.

And the GI50 [6]?
Its GI50 is under 0.01 µM.

How did the GI50 [1] turn out when `Cc1cc(F)c(C(=O)Nc2cc(CN3CCC(N(C)C)C3)cc(C(C)(C)C#N)c2)cc1C#Cc1cnc2c(Nc3cnn(C)c3)cccn12` (stereo not drawn) [Example 29, N-(3-(2-cyanopropan-2-yl)-5-((3-(dimethylamino)pyrrolidin-1-yl)methyl)phenyl)-2-fluoro-4-methyl-5-((8-((1-methyl-1H-pyrazol-4-yl)amino)imidazo[1,2-a]pyridin-3-yl)ethynyl)benzamide] was run?
The GI50 was 0.5 to 5 µM.

What about the GI50 [2] of the same molecule?
The GI50 was 0.05 to 0.5 µM.

What about the GI50 [3] of the same molecule?
Its GI50 is under 0.01 µM.

And the GI50 [4]?
The GI50 was 0.1 µM.

What about the GI50 [5] of the same molecule?
The GI50 was 0.1 µM.

What about the GI50 [6] of the same molecule?
Its GI50 is under 0.01 µM.

With `Cc1cc(F)c(C(=O)Nc2cc(CN3CCCN(C)CC3)cc(C(C)(C)C#N)c2)cc1C#Cc1cnc2c(Nc3cnn(C)c3)cccn12` [Example 30, N-(3-(2-cyanopropan-2-yl)-5-((4-methyl-1,4-diazepan-1-yl)methyl)phenyl)-2-fluoro-4-methyl-5-((8-((1-methyl-1H-pyrazol-4-yl)amino)imidazo[1,2-a]pyridin-3-yl)ethynyl)benzamide] as the molecule, how does the GI50 [1] read?
Its GI50 is 0.5 to 5 µM.

What about the GI50 [2] of the same molecule?
The GI50 was 0.05 to 0.5 µM.

What about the GI50 [3] of the same molecule?
Its GI50 is under 0.01 µM.

And the GI50 [4]?
The GI50 was over 0.1 µM.

And the GI50 [5]?
Its GI50 is 0.1 µM.

What about the GI50 [6] of the same molecule?
Its GI50 is under 0.01 µM.

`Cc1cc(F)c(C(=O)Nc2cc(CN3CCC(C(F)(F)F)CC3)cc(C(C)(C)C#N)c2)cc1C#Cc1cnc2c(Nc3cnn(C)c3)cccn12` [Example 31, N-(3-(2-cyanopropan-2-yl)-5-((4-(trifluoromethyl)piperidin-1-yl)methyl)phenyl)-2-fluoro-4-methyl-5-((8-((1-methyl-1H-pyrazol-4-yl)amino)imidazo[1,2-a]pyridin-3-yl)ethynyl)benzamide] was tested. Which GI50 [1] did it give?
Its GI50 is over 5 µM.

And the GI50 [2]?
Its GI50 is 0.05 to 0.5 µM.

What about the GI50 [3] of the same molecule?
Its GI50 is under 0.01 µM.

What about the GI50 [4] of the same molecule?
The GI50 was over 0.1 µM.

And the GI50 [5]?
The GI50 was over 0.1 µM.

And the GI50 [6]?
Its GI50 is under 0.01 µM.
